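In this assay, cells in 96-well plates receive the compound at five concentrations for 48 hours. Endpoints are linearly interpolated between the surrounding concentrations. Abbreviation: GI50, concentration required for 50% inhibition of growth. TGI denotes the concentration required for complete inhibition of growth.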 Peptide text beside a SMILES is read from it. * marks the point of attachment. Boc = CC(C)(C)OC(=O)*
Tests used:
Test in all cases: NCI-60 cell line screen, 48 h
HS 578T breast = tested on: HS 578T breast
SNB-75 CNS = tested on: SNB-75 CNS
UACC-62 melanoma = tested on: UACC-62 melanoma
CAKI-1 renal = tested on: CAKI-1 renal
UO-31 renal = tested on: UO-31 renal
KM12 colon = tested on: KM12 colon
SK-MEL-28 melanoma = tested on: SK-MEL-28 melanoma
TK-10 renal = tested on: TK-10 renal
OVCAR-8 ovarian = tested on: OVCAR-8 ovarian
SN12C renal = tested on: SN12C renal
SNB-19 CNS = tested on: SNB-19 CNS
HOP-92 NSCLC = tested on: HOP-92 NSCLC
SK-MEL-2 melanoma = tested on: SK-MEL-2 melanoma
U251 CNS = tested on: U251 CNS
SR leukemia = tested on: SR leukemia
PC-3 prostate = tested on: PC-3 prostate
SF-539 CNS = tested on: SF-539 CNS
LOX IMVI melanoma = tested on: LOX IMVI melanoma
COLO 205 colon = tested on: COLO 205 colon
UACC-257 melanoma = tested on: UACC-257 melanoma
SK-OV-3 ovarian = tested on: SK-OV-3 ovarian
SW-620 colon = tested on: SW-620 colon
HCT-116 colon = tested on: HCT-116 colon
OVCAR-3 ovarian = tested on: OVCAR-3 ovarian
SF-268 CNS = tested on: SF-268 CNS
T-47D breast = tested on: T-47D breast
HL-60(TB) leukemia = tested on: HL-60(TB) leukemia
SK-MEL-5 melanoma = tested on: SK-MEL-5 melanoma
786-0 renal = tested on: 786-0 renal
M14 melanoma = tested on: M14 melanoma
CCRF-CEM leukemia = tested on: CCRF-CEM leukemia
EKVX NSCLC = tested on: EKVX NSCLC
NCI-H460 lung = tested on: NCI-H460 lung
A549 NSCLC = tested on: A549 NSCLC
BT-549 breast = tested on: BT-549 breast
MALME-3M melanoma = tested on: MALME-3M melanoma
SF-295 CNS = tested on: SF-295 CNS
HOP-62 NSCLC = tested on: HOP-62 NSCLC
OVCAR-5 ovarian = tested on: OVCAR-5 ovarian
DU-145 prostate = tested on: DU-145 prostate
HCT-15 colon = tested on: HCT-15 colon
A498 renal = tested on: A498 renal
HT29 colon = tested on: HT29 colon
MDA-MB-231 breast = tested on: MDA-MB-231 breast
NCI-H522 lung = tested on: NCI-H522 lung
NCI-H23 lung = tested on: NCI-H23 lung
HCC-2998 colon = tested on: HCC-2998 colon
RXF 393 renal = tested on: RXF 393 renal
IGROV1 ovarian = tested on: IGROV1 ovarian
NCI/ADR-RES ovarian = tested on: NCI/ADR-RES ovarian
MOLT-4 leukemia = tested on: MOLT-4 leukemia
OVCAR-4 ovarian = tested on: OVCAR-4 ovarian
RPMI-8226 leukemia = tested on: RPMI-8226 leukemia
NCI-H226 lung = tested on: NCI-H226 lung
MDA-MB-435 = tested on: MDA-MB-435
K-562 leukemia = tested on: K-562 leukemia
ACHN renal = tested on: ACHN renal

## CC(NC(=O)C(NC(=O)OC(C)(C)C)C(C)C)C(=O)N1CCCC1C(=O)O (stereo not drawn) (Boc-Val-Ala-Pro-OH; configuration not given here)
HS 578T breast
  GI50: 38.1 µg/mL
SNB-75 CNS
  GI50: 0.0101 µg/mL
  TGI: 0.09 µg/mL
UACC-62 melanoma
  GI50: 36.2 µg/mL

## N=C(N)c1ccc(-c2ccc(-c3ccc(Cl)cc3)o2)nc1
CAKI-1 renal
  GI50: 1420 nM
  TGI: 2740 nM

## COc1cc(/C=C(/c2ccccc2)[N+](=O)[O-])c(OC)c2c1OCO2
UO-31 renal
  GI50: 1280 nM
  TGI: 2540 nM
KM12 colon
  GI50: 1840 nM
  TGI: 3440 nM
SK-MEL-28 melanoma
  GI50: 1470 nM
  TGI: 2840 nM
TK-10 renal
  GI50: 2050 nM
  TGI: 3810 nM
OVCAR-8 ovarian
  GI50: 2120 nM
  TGI: 6740 nM
SN12C renal
  GI50: 1560 nM
  TGI: 3790 nM
SNB-19 CNS
  GI50: 1580 nM
  TGI: 2950 nM
HOP-92 NSCLC
  GI50: 1480 nM
  TGI: 3200 nM
SK-MEL-2 melanoma
  GI50: 1850 nM
  TGI: 4000 nM
CAKI-1 renal
  GI50: 1760 nM
  TGI: 3950 nM
HS 578T breast
  GI50: 2990 nM
  TGI: 14900 nM
U251 CNS
  GI50: 1520 nM
  TGI: 3050 nM
SR leukemia
  GI50: 334 nM
  TGI: 2650 nM
PC-3 prostate
  GI50: 1710 nM
  TGI: 3590 nM
SF-539 CNS
  GI50: 1700 nM
  TGI: 3090 nM
LOX IMVI melanoma
  GI50: 1140 nM
  TGI: 2440 nM
COLO 205 colon
  GI50: 1980 nM
  TGI: 4250 nM
UACC-257 melanoma
  GI50: 1580 nM
  TGI: 3400 nM
SK-OV-3 ovarian
  GI50: 2890 nM
  TGI: 8290 nM
SW-620 colon
  GI50: 1520 nM
  TGI: 3560 nM
SNB-75 CNS
  GI50: 539 nM
  TGI: 2040 nM
HCT-116 colon
  GI50: 1300 nM
  TGI: 3000 nM
OVCAR-3 ovarian
  GI50: 1320 nM
  TGI: 2630 nM
SF-268 CNS
  GI50: 1840 nM
  TGI: 3920 nM
T-47D breast
  GI50: 1210 nM
  TGI: 5570 nM
HL-60(TB) leukemia
  GI50: 1790 nM
  TGI: 5640 nM
SK-MEL-5 melanoma
  GI50: 1750 nM
  TGI: 3140 nM
786-0 renal
  GI50: 1620 nM
  TGI: 3050 nM
M14 melanoma
  GI50: 1560 nM
  TGI: 3300 nM
CCRF-CEM leukemia
  GI50: 522 nM
  TGI: > 100000 nM
EKVX NSCLC
  GI50: 1690 nM
  TGI: 3320 nM
NCI-H460 lung
  GI50: 1870 nM
  TGI: 3580 nM
A549 NSCLC
  GI50: 2100 nM
  TGI: 5030 nM
BT-549 breast
  GI50: 1660 nM
  TGI: 3230 nM
MALME-3M melanoma
  GI50: 1530 nM
  TGI: 3210 nM
SF-295 CNS
  GI50: 2780 nM
  TGI: 7880 nM
HOP-62 NSCLC
  GI50: 2320 nM
  TGI: 5120 nM
OVCAR-5 ovarian
  GI50: 1760 nM
  TGI: 3580 nM
UACC-62 melanoma
  GI50: 1440 nM
  TGI: 2980 nM
DU-145 prostate
  GI50: 1640 nM
  TGI: 3020 nM
HCT-15 colon
  GI50: 389 nM
  TGI: 1600 nM
A498 renal
  GI50: 1540 nM
  TGI: 3000 nM
HT29 colon
  GI50: 2640 nM
  TGI: 13100 nM
MDA-MB-231 breast
  GI50: 1700 nM
  TGI: 3330 nM
NCI-H522 lung
  GI50: 1590 nM
  TGI: 4030 nM
NCI-H23 lung
  GI50: 1730 nM
  TGI: 3410 nM
HCC-2998 colon
  GI50: 1970 nM
  TGI: 3440 nM
RXF 393 renal
  GI50: 1490 nM
  TGI: 2850 nM
IGROV1 ovarian
  GI50: 1160 nM
  TGI: 2600 nM
NCI/ADR-RES ovarian
  GI50: 2430 nM
  TGI: 7370 nM
MOLT-4 leukemia
  GI50: 1860 nM
  TGI: 6410 nM
OVCAR-4 ovarian
  GI50: 1740 nM
  TGI: 3150 nM
RPMI-8226 leukemia
  GI50: 459 nM
  TGI: 4100 nM
NCI-H226 lung
  GI50: 1790 nM
  TGI: 3460 nM
MDA-MB-435
  GI50: 1500 nM
  TGI: 3080 nM
K-562 leukemia
  GI50: 373 nM
  TGI: 13700 nM
ACHN renal
  GI50: 1710 nM
  TGI: 3080 nM
